Entries after “also recorded” stand apart in the source; their conditions may differ.
Columns and labels:
Assay type in all cases: cell-based, human
[1] = test system: TK6 cells
[2] = test system: MCL-5 cells; experiment: ToxChip (μCC) microcolony toxicity assay, MCL-5 cells
[3] = test system: TK6+MGMT cells; experiment: ToxChip (μCC) microcolony toxicity assay, TK6+MGMT cells; conditions: TK6+MGMT vs TK6

Molecule: aflatoxin B1 [AFB1]
- toxicity to TK6 cells [1]: relatively unaffected
- difference in sensitivity between TK6 and MCL-5 cells [2]: more than 2 log
- sensitivity of MCL-5 cells compared with TK6 cells [2]: significantly more sensitive

Molecule: CC(=O)N1CCN(c2ccc(OCC3COC(Cn4ccnc4)(c4ccc(Cl)cc4Cl)O3)cc2)CC1 (stereo not drawn) [KET, ketoconazole]
- rescue of MCL-5 cells from AFB1 toxicity by co-treatment [2]: significant rescue; also recorded: significantly rescues

Molecule: O=NN(CCCl)C(=O)NCCCl [BCNU, N,N′-bis (2-chloroethyl)-N-nitrosourea]
- difference in survival between TK6 and TK6+MGMT when challenged ([3]; PFF method): approximately 1 log
- difference in sensitivity between TK6 and TK6+MGMT ([3]; μCC, treatment 1 hour at 37° C.): significant difference in sensitivity; also recorded: MGMT significantly rescues TK6 cells
- PF value as % of the control PF ([1]; TK6 cells, 10 μM BCNU): 96%
- PFF (total PF fluorescence) as % of the control PFF ([1]; TK6 cells, 10 μM BCNU): 53%
- microcolony growth (F/M distribution) after treatment ([1]; TK6 cells, BCNU 1 hour, up to 72 hours growth): less able to form larger colonies; also recorded: inhibits growth of colonies

Source: patent US20200109362A1 (priority 2016, published 2020)
